For test [1], the system named is Pseudomonas aeruginosa. In words: Antibacterial activity against Pseudomonas aeruginosa at 100 ug/ml after 24 hr by two-fold serial dilution method. The class given is functional, organism-based.
Test [2] has as its system Klebsiella pneumoniae. In words: Antibacterial activity against Klebsiella pneumoniae at 100 ug/ml after 24 hr by two-fold serial dilution method. The class given is functional, organism-based.
Test [3] concerns Aspergillus flavus. In words: Antifungal activity against Aspergillus flavus at 100 ug/ml after 72 to 96 hr by two-fold serial dilution method. The class given is functional, organism-based.
Test [4] concerns Candida. In words: Antifungal activity against Candida-51 at 100 ug/ml after 72 to 96 hr by two-fold serial dilution method. The class given is functional, organism-based.
For test [5], the system named is Bacillus subtilis. As to the kind of experiment: Antibacterial activity against Bacillus subtilis after 24 hr by two-fold serial dilution method. The class given is functional.
Test [6] concerns Enterococcus faecalis. As to the kind of experiment: Antibacterial activity against Enterococcus faecalis at 100 ug/ml after 24 hr by two-fold serial dilution method. The class given is functional, organism-based.
Test [7] concerns Escherichia coli. As to the kind of experiment: Antibacterial activity against Escherichia coli after 24 hr by two-fold serial dilution method. The class given is functional.
In test [8] the test system is Aspergillus niger. In words: Antifungal activity against Aspergillus niger after 72 to 96 hr by two-fold serial dilution method. The class given is functional.
The test system of test [9] is Candida. As to the kind of experiment: Antifungal activity against Candida-6 at 100 ug/ml after 72 to 96 hr by two-fold serial dilution method. The class given is functional, organism-based.
Test [10] has as its system Cryptococcus neoformans. As to the kind of experiment: Antifungal activity against Cryptococcus neoformans at 100 ug/ml after 72 to 96 hr by two-fold serial dilution method. The class given is functional, organism-based.
Test [11] concerns Candida. In words: Antifungal activity against Candida-51 after 72 to 96 hr by two-fold serial dilution method. The class given is functional.
Test [12] deals with Pseudomonas aeruginosa. As to the kind of experiment: Antibacterial activity against Pseudomonas aeruginosa after 24 hr by two-fold serial dilution method. The class given is functional.
The test system of test [13] is Aspergillus flavus. In words: Antifungal activity against Aspergillus flavus after 72 to 96 hr by two-fold serial dilution method. The class given is functional.
In test [14] the test system is Klebsiella pneumoniae. In words: Antibacterial activity against Klebsiella pneumoniae after 24 hr by two-fold serial dilution method. The class given is functional.
Test [15] deals with Candida. As to the kind of experiment: Antifungal activity against Candida-6 after 72 to 96 hr by two-fold serial dilution method. The class given is functional.
The test system of test [16] is Enterococcus faecalis. In words: Antibacterial activity against Enterococcus faecalis after 24 hr by two-fold serial dilution method. The class given is functional.
Test [17] has as its system Cryptococcus neoformans. As to the kind of experiment: Antifungal activity against Cryptococcus neoformans after 72 to 96 hr by two-fold serial dilution method. The class given is functional.

Structures are written as SMILES. Converted amounts (≈) assume the structure as drawn. The source made the active and inactive calls. No cut-off for these calls is given here.

As for `CC(=O)NC1=NN(C(C)=O)C2(CC(c3ccccc3)N(C(C)=O)C(c3ccccc3)C2)S1` (stereo not given), the inhibition result in [1], in [2], in [3], in test [4], in test [6] and in [9] was “inactive” each time. The inhibition entry in [10] is “inactive”. Further, the MIC in [5] stood at 100 µg/mL (≈ 222 µM); in [7], 50 µg/mL (≈ 111 µM); in test [8] it was 100 µg/mL (≈ 222 µM).

In the case of `COc1ccc(C2CC3(SC(NC(C)=O)=NN3C(C)=O)C(C)C(c3ccc(OC)cc3)N2C(C)=O)cc1` (stereo not given), the MIC in test [11] stood at 25 µg/mL (≈ 47.7 µM); in test [12], 25 µg/mL (≈ 47.7 µM); in test [13] it was 25 µg/mL (≈ 47.7 µM); in [5] it was 25 µg/mL (≈ 47.7 µM); in test [14] it was 6.25 µg/mL (≈ 11.9 µM); in [7], 25 µg/mL (≈ 47.7 µM). Also, the MIC in [15] was found to be 50 µg/mL (≈ 95.3 µM); in test [8], 25 µg/mL (≈ 47.7 µM); in test [16] it was 25 µg/mL (≈ 47.7 µM); in test [17] it was 6.25 µg/mL (≈ 11.9 µM).

Take `CC(=O)NC1=NN(C(C)=O)C2(CC(c3ccccc3)N(C(C)=O)C(c3ccccc3)C2C)S1` (stereo not given): the inhibition result in [1], in test [2], in test [4], in test [9] and in test [10] was “inactive” throughout. Moreover, the MIC is 100 µg/mL (≈ 215 µM) in test [13]; 100 µg/mL (≈ 215 µM) in test [5]; 50 µg/mL (≈ 108 µM) in test [7]; 50 µg/mL (≈ 108 µM) in [8]; 100 µg/mL (≈ 215 µM) in test [16].

As for `CC1(C)S[C@@H]2[C@H](NC(=O)Cc3ccccc3)C(=O)N2[C@H]1C(=O)O` [PENICILLIN G], the MIC in test [12] turned out to be 50 µg/mL (≈ 150 µM); in test [5] it was 25 µg/mL (≈ 74.8 µM); in test [14] it was 12.5 µg/mL (≈ 37.4 µM); in test [7], 50 µg/mL (≈ 150 µM); in test [16] it was 12.5 µg/mL (≈ 37.4 µM).

In the case of `CC(=O)NC1=NN(C(C)=O)C2(CC(c3ccc(Cl)cc3)N(C(C)=O)C(c3ccc(Cl)cc3)C2)S1` (stereo not given), the MIC in test [11] came to 50 µg/mL (≈ 96.3 µM); in test [12], 25 µg/mL (≈ 48.1 µM); in test [13], 50 µg/mL (≈ 96.3 µM); in [5], 50 µg/mL (≈ 96.3 µM); in test [14], 25 µg/mL (≈ 48.1 µM); in [7] it was 50 µg/mL (≈ 96.3 µM). Also, the minimum inhibitory concentration (MIC) stood at 50 µg/mL (≈ 96.3 µM) in test [15], 25 µg/mL (≈ 48.1 µM) in [8], 25 µg/mL (≈ 48.1 µM) in test [16] and 25 µg/mL (≈ 48.1 µM) in test [17].

In the case of `COc1ccc(C2CC3(CC(c4ccc(OC)cc4)N2C(C)=O)SC(NC(C)=O)=NN3C(C)=O)cc1` (stereo not given), the MIC in test [11] is 50 µg/mL (≈ 97.9 µM); in [12], 50 µg/mL (≈ 97.9 µM); in test [13] it was 25 µg/mL (≈ 49 µM); in [5], 25 µg/mL (≈ 49 µM); in test [14], 12.5 µg/mL (≈ 24.5 µM); in [7] it was 25 µg/mL (≈ 49 µM). In addition, the MIC in test [15] turned out to be 25 µg/mL (≈ 49 µM); in test [8], 25 µg/mL (≈ 49 µM); in test [16], 25 µg/mL (≈ 49 µM); in [17], 12.5 µg/mL (≈ 24.5 µM).

For the molecule `CC(=O)NC1=NN(C(C)=O)C2(CC(c3ccc(Cl)cc3)N(C(C)=O)C(c3ccc(Cl)cc3)C2C)S1` (stereo not given), the MIC in [11] came to 25 µg/mL (≈ 46.9 µM); in test [12] it was 25 µg/mL (≈ 46.9 µM); in [13] it was 50 µg/mL (≈ 93.7 µM); in test [5], 50 µg/mL (≈ 93.7 µM); in test [14] it was 12.5 µg/mL (≈ 23.4 µM); in [7], 25 µg/mL (≈ 46.9 µM). The MIC came out at 25 µg/mL (≈ 46.9 µM) in [15], 25 µg/mL (≈ 46.9 µM) in test [8], 12.5 µg/mL (≈ 23.4 µM) in test [16] and 12.5 µg/mL (≈ 23.4 µM) in test [17].

On to `CC(=O)NC1=NN(C(C)=O)C2(CC(c3ccc(C)cc3)N(C(C)=O)C(c3ccc(C)cc3)C2C)S1` (stereo not given), for which the MIC was 100 µg/mL (≈ 203 µM) in test [11]; 50 µg/mL (≈ 101 µM) in [12]; 100 µg/mL (≈ 203 µM) in [13]; 100 µg/mL (≈ 203 µM) in test [5]; 25 µg/mL (≈ 50.7 µM) in test [14]; 50 µg/mL (≈ 101 µM) in [7]. The MIC in [15], in test [8] and in test [16] was 50 µg/mL (≈ 101 µM) in each case. Besides, the inhibition result in test [10] was “inactive”.

Consider `C[C@@H]1[C@H](O)[C@@H](C)/C=C/C=C/C=C/C=C/C=C/C=C/C=C/[C@H](O[C@@H]2O[C@H](C)[C@@H](O)[C@H](N)[C@@H]2O)C[C@@H]2O[C@](O)(C[C@@H](O)C[C@@H](O)[C@H](O)CC[C@@H](O)C[C@@H](O)CC(=O)O[C@H]1C)C[C@H](O)[C@H]2C(=O)O` [AMPHOTERICIN B], for which the MIC was 25 µg/mL (≈ 27.1 µM) in test [11]; 50 µg/mL (≈ 54.1 µM) in test [13]; 25 µg/mL (≈ 27.1 µM) in [15]; 50 µg/mL (≈ 54.1 µM) in test [8]; 25 µg/mL (≈ 27.1 µM) in test [17].

Consider `CC(=O)NC1=NN(C(C)=O)C2(CC(c3ccc(C)cc3)N(C(C)=O)C(c3ccc(C)cc3)C2)S1` (stereo not given), for which the MIC was 100 µg/mL (≈ 209 µM) in [11]; 100 µg/mL (≈ 209 µM) in test [12]; 100 µg/mL (≈ 209 µM) in test [5]; 100 µg/mL (≈ 209 µM) in test [14]; 100 µg/mL (≈ 209 µM) in test [7]; 50 µg/mL (≈ 104 µM) in [15]. Further, the MIC in test [8] stood at 50 µg/mL (≈ 104 µM); in [16], 100 µg/mL (≈ 209 µM). The inhibition entry in test [3] and in test [10] was “inactive” throughout.

Turning to `CN[C@@H]1[C@H](O[C@H]2[C@H](O[C@H]3[C@H](O)[C@@H](O)[C@H](N=C(N)N)[C@@H](O)[C@@H]3N=C(N)N)O[C@@H](C)[C@]2(O)C=O)O[C@@H](CO)[C@H](O)[C@H]1O` [STREPTOMYCIN], the MIC stood at 25 µg/mL (≈ 43 µM) in test [12]; 12.5 µg/mL (≈ 21.5 µM) in [5]; 25 µg/mL (≈ 43 µM) in [14]; 12.5 µg/mL (≈ 21.5 µM) in test [7]; 50 µg/mL (≈ 86 µM) in test [16].

For the origin of these results see ChEMBL document CHEMBL3046555, “Synthesis and Microbiological Evaluation of Novel [N-Acetyl-2,6-Diarylpiperidin-4-YL]-5-Spiro-4-Acetyl-2-(Acetylamino)-2-1,3,4-Thiadiazolines” (2004).
